Source: paper PMC11672637, “7-O-Carboxylic Acid-Substituted 3-O-Alkyl Difluoroquercetin; An Aztreonam-Potentiating Agent Against Carbapenemase-Producing Pseudomonas aeruginosa Through Simultaneous Inhibition of Metallo-β-Lactamase and Efflux Pump” (Antibiotics, 2024)

Columns and labels:
Assay in all cases: MIC / checkerboard with ATM
Set-up in all cases: key to Susceptibility category: S: susceptible; I: intermediate; R: resistant
[1] = tested on: PA-038, blaNDM; format: cell-based, P. aeruginosa; details: PA-038; Table S2
[2] = tested on: PA-014, blaGES; format: cell-based, P. aeruginosa; details: PA-014, Table S2
[3] = tested on: PA-044, blaNDM; format: cell-based, P. aeruginosa; details: PA-044; Table S2
[4] = tested on: PA-027, blaIMP; format: cell-based, P. aeruginosa; details: PA-027; Table S2
[5] = tested on: PA-009, blaGES; format: cell-based, P. aeruginosa; details: PA-009, Table S2
[6] = tested on: PA-016, blaIMP; format: cell-based, P. aeruginosa; details: PA-016; Table S2
[7] = tested on: PA-040, blaNDM; format: cell-based, P. aeruginosa; details: PA-040; Table S2
[8] = tested on: PA-042, blaIMP/NDM; format: cell-based, P. aeruginosa; details: PA-042, Table S2; for MIC: Pseudomonas aeruginosa, read-out: MIC value
[9] = tested on: PA-035, blaGES; format: cell-based, P. aeruginosa; details: PA-035, Table S2; for MIC: Pseudomonas aeruginosa, read-out: MIC value
[10] = tested on: NDM-1-Producing P. aeruginosa (PA-017, blaNDM); format: cell-based; details: PA-017; Table S2
[11] = tested on: PA-025, blaNDM; format: cell-based, P. aeruginosa; details: PA-025; Table S2
[12] = tested on: PA-003, blaVIM; format: cell-based, P. aeruginosa; details: PA-003, Table S2; for MIC: Pseudomonas aeruginosa, read-out: MIC value
[13] = tested on: PA-041, blaNDM; format: cell-based, P. aeruginosa; details: PA-041, Table S2
[14] = tested on: PA-002, blaIMP; format: cell-based, P. aeruginosa; details: PA-002, Table S2; for MIC: Pseudomonas aeruginosa, read-out: MIC value
[15] = tested on: PA-032, blaIMP; format: cell-based, P. aeruginosa; details: PA-032, Table S2
[16] = tested on: PA-039, blaNDM; format: cell-based, P. aeruginosa; details: PA-039, Table S2; for MIC: Pseudomonas aeruginosa, read-out: MIC value
[17] = tested on: PA-026, blaNDM; format: cell-based, P. aeruginosa; details: PA-026, Table S2; for MIC: Pseudomonas aeruginosa, read-out: MIC value
[18] = tested on: PA-034, blaNDM; format: cell-based, P. aeruginosa; details: PA-034; Table S2
[19] = tested on: PA-028, blaNDM; format: cell-based, P. aeruginosa; details: PA-028; Table S2
[20] = tested on: PA-021, blaIMP; format: cell-based, P. aeruginosa; details: PA-021, Table S2
[21] = tested on: PA-033, blaNDM; format: cell-based, P. aeruginosa; details: PA-033; Table S2
[22] = tested on: PA-029, blaIMP; format: cell-based, P. aeruginosa; details: PA-029; Table S2
[23] = tested on: PA-030, blaIMP; format: cell-based, P. aeruginosa; details: PA-030; Table S2
[24] = tested on: PA-031, blaNDM; format: cell-based, P. aeruginosa; details: PA-031; Table S2
[25] = tested on: PA-037, blaIMP/NDM; format: cell-based, P. aeruginosa; details: PA-037; Table S2
[26] = tested on: PA-036, blaNDM; format: cell-based, P. aeruginosa; details: PA-036; Table S2
[27] = Pseudomonas aeruginosa, read-out: MIC value

Structure (SMILES)	Susceptibility category [1]	Susceptibility category [2]	Susceptibility category [3]	Susceptibility category [4]	Susceptibility category [5]	Susceptibility category [6]	Susceptibility category [7]	Susceptibility category [8]	Susceptibility category [9]	Susceptibility category [10]	Susceptibility category [11]	Susceptibility category [12]	Susceptibility category [13]	Susceptibility category [14]	Susceptibility category [15]	Susceptibility category [16]	Susceptibility category [17]	Susceptibility category [18]	Susceptibility category [19]	Susceptibility category [20]	further results
NCC[C@H](O)C(=O)N[C@@H]1C[C@H](N)[C@@H](O[C@H]2O[C@H](CN)[C@@H](O)[C@H](O)[C@H]2O)[C@H](O)[C@H]1O[C@H]1O[C@H](CO)[C@@H](O)[C@H](N)[C@H]1O [AMK, amikacin, reference compound]	R	S	R	R	S	R	R	R	S	R	R	R	R	R	S	S	S	R	R	S	MIC [2, 27]: 8 µg/mL; MIC [5, 27]: 16 µg/mL; MIC [9]: ≤ 4 µg/mL; MIC [16]: ≤ 4 µg/mL; MIC [20, 27]: 16 µg/mL; Susceptibility category [21]: R; Susceptibility category [22]: R; Susceptibility category [23]: R; Susceptibility category [24]: R; Susceptibility category [25]: R; Susceptibility category [26]: R
CC(C)(O/N=C(\C(=O)N[C@@H]1C(=O)N2C(C(=O)[O-])=C(C[n+]3ccccc3)CS[C@H]12)c1csc(N)n1)C(=O)O [CAZ, ceftazidime, reference compound]	R	R	R	R	R	R	R	R	R	R	R	S	R	R	S	R	R	R	R	R	MIC [8]: > 16 µg/mL; MIC [9]: > 16 µg/mL; MIC [12]: 4 µg/mL; MIC [14]: > 16 µg/mL; MIC [15, 27]: 8 µg/mL; Susceptibility category [21]: R; Susceptibility category [22]: R; Susceptibility category [23]: R; Susceptibility category [24]: R; Susceptibility category [25]: R; Susceptibility category [26]: R
CO/N=C(\C(=O)N[C@@H]1C(=O)N2C(C(=O)[O-])=C(C[N+]3(C)CCCC3)CS[C@H]12)c1csc(N)n1 [FEP, cefepime, reference compound]	R	R	R	R	R	R	R	R	S	R	R	R	R	R	R	R	S	R	R	R	MIC [8]: > 16 µg/mL; MIC [9]: 4 µg/mL; MIC [12]: > 16 µg/mL; MIC [14]: > 16 µg/mL; MIC [17]: 8 µg/mL; Susceptibility category [21]: R; Susceptibility category [22]: R; Susceptibility category [23]: R; Susceptibility category [24]: R; Susceptibility category [25]: R; Susceptibility category [26]: R
CNC(C)C1CCC(N)C(OC2C(N)CC(N)C(OC3OCC(C)(O)C(NC)C3O)C2O)O1 (centres unmarked) [GEN, gentamicin, reference compound]	R	R	R	R	I	R	R	R	R	R	R	R	S	R	S	S	S	R	R	R	MIC [12]: > 8 µg/mL; MIC [13, 27]: ≤ 2 µg/mL; MIC [14]: > 8 µg/mL; MIC [16]: ≤ 2 µg/mL; MIC [17]: ≤ 2 µg/mL; Susceptibility category [21]: R; Susceptibility category [22]: R; Susceptibility category [23]: R; Susceptibility category [24]: R; Susceptibility category [25]: R; Susceptibility category [26]: R
C[C@@H](O)[C@H]1C(=O)N2C(C(=O)O)=C(SCCN=CN)C[C@H]12 [IPM, imipenem, reference compound]	R	R	R	R	R	R	R	R	R	R	R	R	R	R	R	R	I	R	R	R	MIC [8]: > 8 µg/mL; MIC [9]: 8 µg/mL; MIC [12]: > 8 µg/mL; MIC [14]: > 8 µg/mL; MIC [17]: 4 µg/mL; Susceptibility category [21]: R; Susceptibility category [22]: R; Susceptibility category [23]: R; Susceptibility category [24]: R; Susceptibility category [25]: R; Susceptibility category [26]: R
